In patent publication US20050069541A1, “Composition for and treatment of demyelinating diseases and paralysis by administration of remyelinating agents” (priority 2003, published 2005):

Tests used:
[1] = Receptor-saturating levels of compound maintained in dosed EAE guinea pigs; assay type: in vivo; conditions: 30 mg/kg twice a day, subcutaneously, guinea pig
Method: Treatment Regimes. N-[N-(3-pyridinesulfonyl)-L-3,3-dimethyl-4-thiaprolyl]-O-[1-methylpiperazin-4-ylcarbonyl]-L-tyrosine isopropyl ester is a small molecule that binds with high affinity to human and guinea pig 4 integrin (IC50 for inhibition of cell adhesion to VCAM=1 nm). Disease in animals was considered chronic by day 40 post immunization, and thus the treatment period began at this time, and lasted for 10, 20, 30 or 40 days. Animals received either 0.5 mL saline (vehicle for N-[N-(3-pyridinesulfonyl)-L-3,3-dimethyl-4-thiaprolyl]-O-[1-methylpiperazin-4-ylcarbonyl]-L-tyrosine isopropyl ester; n=20) or 30 mg/kg N-[N-(3-pyridinesulfonyl)-L-3,3-dimethyl-4-thiaprolyl]-O-[1-methylpiperazin-4-ylcarbonyl]-L-tyrosine isopropyl ester (n=25) twice a day. With the dosing regimen, receptor saturation levels of N-[N-(3-pyridinesulfonyl)-L-3,3-dimethyl-4-thiaprolyl]-O-[1-methylpiperazin-4-ylcarbonyl]-L-tyrosine isopropyl ester (>10 nm) were maintained at all times. One subgroup of animals received N-[N-(3-pyridinesulfonyl)-L-3,3-dimethyl-4-thiaprolyl]-O-[1-methylpiperazin-4-ylcarbonyl]-L-tyrosine isopropyl ester for 30 days, and then treatment was withdrawn and the animals were maintained for an additional 10 days (n=5). All treatments were administered subcutaneously.
Treatment Regimes. Animals that met both treatment criteria were treated for intervals of 10, 20, 30 or 40 days. […]

[2] = system: brain and spinal cord of EAE guinea pigs; experiment: Chronic EAE: histology and blinded pathological scoring of brain and spinal cord sections (H-E, SCR); assay type: in vivo, guinea pig
Method: Animal Sacrifice and Histological Analysis. Untreated, chronic EAE animals (n=5) were sacrificed on day 40, as well as non-EAE controls (n=5). Following each 10-day treatment interval, 5 animals from each group were sacrificed (0.25 mL sodium pentobarbital), blood samples were collected for FACS analysis (see below), and the brain and spinal cord dissected and sectioned. Three spinal sections were used, corresponding to lumbar, thoracic and cervical regions of the cord. The brain was cut into five transverse sections. The first three proximal sections were combined in one block, and the last two distal sections in another. Tissues were fixed in 10% formalin and embedded in paraffin. […] sections were stained with hematoxylin-eosin (H-E) or solochrome-R-cyanlin (SCR) and evaluated by a blinded observer in each of four categories: (1) meningeal inflammation, (2) perivascular infiltration, (3) encephalitis or (4) myelitis and demyelination (Table 6). The combined pathological score represents the total score (out of a potential 20) from all 5 CNS sections in each animal.

[3] = system: infiltrating cells in spinal cord; experiment: Chronic EAE: mean cell counts in spinal cord (H-E sections, 0.12 mm^2 fields); assay type: in vivo, guinea pig; conditions: for Mean # Cells/0.12 mm^2: spinal cord
Method: To quantify the abnormalities observed in the spinal cord, sections stained with H-E were divided into 12 representative pie-shaped areas. In each area, the number of cells within a 0.12 mm^2 field of view was counted using Sigma Scan Pro image analysis software (SPSS Inc.), and the combined mean number of cells in all 12 areas was calculated for the whole spinal cord (36 fields of view per animal). Note that as all cell nuclei were counted, the number of cells may include neurons and glial cells in addition to infiltrates.

SMILES: CC(C)OC(=O)[C@H](Cc1ccc(OC(=O)N2CCN(C)CC2)cc1)NC(=O)[C@H]1N(S(=O)(=O)c2cccnc2)CSC1(C)C [N-[N-(3-pyridinesulfonyl)-L-3,3-dimethyl-4-thiaprolyl]-O-[1-methylpiperazin-4-ylcarbonyl]-L-tyrosine isopropyl ester]
- receptor saturation levels maintained at all times [1]: > 10 nm
- mean pathological score in each of four categories versus saline ([2]; meningeal inflammation, perivascular infiltration, encephalitis/myelitis, demyelination, p<0.001 two-way ANOVA): significant decrease
- mean combined pathological score after withdrawal for 10 days versus continued treatment ([2]; p<0.05 Kruskal Wallis): significantly higher
- spinal cord histology after 20 days of treatment (day 60) ([2]; versus saline): much smaller areas of demyelination
- spinal cord histology after 40 days of treatment (day 80) ([2]; versus saline): almost no meningeal and perivascular infiltration
- cell number in spinal cord versus saline-treated animals ([3]; after 10, 20, 30 or 40 days, p<0.001 two-way ANOVA): significant reduction
- mean cell counts versus chronic (d40) control EAE animals ([3]; after 20, 30 or 40 days, p<0.05): significantly lower
- mean cell count in spinal cord versus non-EAE animals ([3]; after 40 days of treatment): not different
- mean cell count after removal of compound for 10 days versus continuous treatment ([3]; p<0.05): significant increase
- rate of cell loss from spinal cord ([3]; slope of linear regression of mean cell counts, r^2=0.90): 8 cells/mm^2/day
- Mean # Cells/0.12 mm^2 ([3]; D50 (10 days of treatment)): 97 ± 3.9 cells/0.12 mm^2
- Mean # Cells/0.12 mm^2 ([3]; D60 (20 days of treatment)): 86 ± 4.2 cells/0.12 mm^2
- Mean # Cells/0.12 mm^2 ([3]; D70 (30 days of treatment)): 89 ± 8 cells/0.12 mm^2
- Mean # Cells/0.12 mm^2 ([3]; D80 (40 days of treatment)): 70 ± 4 cells/0.12 mm^2
